Values quoted from earlier work, collected in paper PMC6764291 (Frontiers in Oncology, 2019).

Assays:
[1] = system: p53; design: method as in PMID 14704432; details: cited from earlier work
[2] = system: mutant p53 cells; details: in vitro, considerably higher concentrations than required for wt p53 cell lines; cited from earlier work
Source text: As expected, the two p53 mutated cell lines did n ...

COc1ccc(C2=N[C@@H](c3ccc(Cl)cc3)[C@@H](c3ccc(Cl)cc3)N2C(=O)N2CCNC(=O)C2)c(OC(C)C)c1 [Nutlin-3]
p53-expression [1]: increased p53-expression was directly correlated to increasing concentrations

COc1ccc(C2=N[C@H](c3ccc(Cl)cc3)[C@H](c3ccc(Cl)cc3)N2C(=O)N2CCN(C(C)=O)CC2)c(OC(C)C)c1 [Nutlin-1]
effect on mutant p53 cells [2]: Some effect
